Laboratory results as given in publication PMC5519041, “Differing roles for short chain fatty acids and GPR43 agonism in the regulation of intestinal barrier function and immune responses” (PLoS ONE, 2017).
Where two headings read alike, the source gives them in different places.

Key:
human PBMC = assay: LPS stimulation of PBMC, cytokine production; type: cell-based; settings: for effect on LPS-induced cytokine production: μM range; for effect on LPS-induced cytokine production / IC50: 1 μg/mL LPS, 18 hours; for IC50: Homo sapiens, PBMC, 45 minutes preincubation
Method: Amgen Institutional Review Board approval and consent was obtained for collection and the studies involving human blood. PBMC were isolated from heparinized blood using Ficoll and then plated onto 96-well plates. Butyrate or GPR43 agonists were incubated with the PBMC for 45 minutes prior to the addition of 1 μg/mL lipopolysaccharide (LPS). Cell culture supernatants were collected at 18 hours post-stimulation. TNFα, IL-1β and IL-6 production were measured using Meso Scale Discovery multiplex kits.

human T cells = assay: One-way mixed lymphocyte reaction, T cell proliferation and cytokines; type: cell-based
Excerpt: Amgen Institutional Review Board approval and consent was obtained for collection and the studies involving human blood. PBMC were obtained from volunteers’ human blood using Ficoll. T cells were isolated using magnetic sorting with a pan T cell isolation kit (Miltenyi Biotec). Stimulator cells were isolated by negative magnetic sorting using anti-CD3 beads to deplete CD3+ cells. The stimulator cells were irradiated and mixed together with the purified T cells in the presence or absence of the SCFA or agonist. Supernatants were collected at day 3 for cytokine measurements using Meso Scale Discovery multiplex kits, and proliferation was measured at day 4 after an 18 hour pulse with 1μCi 3H-thymidine per well.

human FFA2 receptor = target: T1, human FFA2 receptor (Homo sapiens, UniProt O15552); assay: Aequorin assay, cytosolic calcium in CHO-K1 cells stably expressing aequorin and human FFA2 receptor; type: cell-based; settings: CHO-K1 cells stably expressing human GPR43, read-out: Ca^2+ (Aequorin)
T1 construct: expressed in transfected cells
T1 sequence (O15552 1-330): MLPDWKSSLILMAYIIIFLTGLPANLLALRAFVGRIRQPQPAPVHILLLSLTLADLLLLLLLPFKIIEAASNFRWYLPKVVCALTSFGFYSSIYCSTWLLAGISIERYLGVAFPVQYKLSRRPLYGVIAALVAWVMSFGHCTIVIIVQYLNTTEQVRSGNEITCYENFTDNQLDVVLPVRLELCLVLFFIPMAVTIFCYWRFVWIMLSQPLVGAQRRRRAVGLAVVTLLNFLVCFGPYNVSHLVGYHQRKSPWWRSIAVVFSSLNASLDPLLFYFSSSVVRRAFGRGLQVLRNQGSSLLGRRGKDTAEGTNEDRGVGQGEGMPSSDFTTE
Method: Agonist-induced receptor activation was determined by an increase in cytosolic calcium concentration in CHO-K1 cells stably expressing the mitochondrial targeted aequorin and human FFA2 receptor. The increased cytosolic calcium was monitored by luminescence emitted from aequorin as previously described

human GPR43 = target: T2, human GPR43 (Homo sapiens, UniProt O15552); assay: cAMP inhibition assay (HTRF), forskolin-induced cAMP in CHO cells stably expressing human GPR43; type: cell-based; settings: inhibition of forskolin-induced cAMP production
T2 construct: expressed in transfected cells
T2 sequence (O15552 1-330): T1 sequence (O15552 1-330)
Method: A competitive, HTRF® immunoassay (CisBio Dynamic 2 cAMP kit) was used to measure the inhibition of cAMP response in CHO cells stably expressing human GPR43. Assay-ready cells were thawed, resuspended in PBS and stimulated with forskolin (3μM final) for 45 minutes at room temperature in the presence of serially diluted natural ligands or test compounds in a 384 well plate (Greiner). Subsequently the cells were lysed by adding lysis buffer containing the cAMP-Tracer and Europium-labeled anti-cAMP antibody according to the manufacturer’s protocol. The signals were recorded using a Perkin Elmer Envision. The raw data was calculated as fluorescence ratio (665nm/620nm) and analyzed using GraphPad Prism Software.

C2BBe1 cells [1] = assay: Intestinal barrier function by ECIS in C2BBe1 cells; type: cell-based, human; settings: 48 hours; for barrier resistance (ECIS), barrier formation: 75 Hz, #58 at 1 uM and 10 uM vs DMSO control
Method: Cells were cultured in DMEM containing 10% FBS, and the next day (day 1), the medium was replaced with that containing 0.5% serum. On day 2, media was changed and test agents were added in duplicate in media containing 0.5% serum. The experiment was concluded 48 hours later (day 4). Barrier resistance was measured on the ECIS instrument. The plots shown are at 75 Hz beginning at day 2 post-addition of the test agents with resistance values normalized to those observed just prior to the addition of test agents. For barrier disruption and reformation studies, cells were cultured in transwells in the ECIS array as described above in the presence of 10% serum for one day and 0.5% serum for another day. On day 2, the media was replaced with media containing 0.5% serum and 2.5 mM EGTA (in apical and basolateral chambers). The EGTA was washed off 5 hours later and replaced with media containing 0.5% serum and test agents. Cells were monitored over the next 48 hours for barrier reformation and the plots shown are at 75 Hz with resistance values normalized to those observed just prior to the addition of test agents.

[2] = test system: intestinal epithelial cells; design: method as in PMID 9142899, PMID 17211138; settings: published data ref [13], [15]; cited from earlier work
C2BBe1 cells [3] = assay: Intestinal barrier function by TEER and Lucifer Yellow in C2BBe1 monolayers
[4] = 72 h, supernatant day 3, read-out: IL-17A IC50

| EC50 (human FFA2 receptor; 10% FBS) | EC50 (human FFA2 receptor; No FBS) | EC50 (human GPR43) | Structure (SMILES) | effect on LPS-induced cytokine production (human PBMC) | IC50 (human T cells; [4]) | barrier resistance (ECIS), barrier formation (C2BBe1 cells [1]) | IC50 (human PBMC; read-out: IL-1β IC50) | IC50 (human PBMC; read-out: IL-6 IC50) | IC50 (human PBMC; read-out: TNFα IC50) | cell viability (human PBMC; highest concentrations utilized in this assay) | concentrations toxic to intestinal epithelial cells [2] | IC50 (human T cells; 72 h, supernatant day 3, read-out: IFNγ IC50) | IC50 (human T cells; day 4, 3H-thymidine, read-out: Proliferation IC50) | barrier reformation after EGTA disruption (ECIS resistance) (C2BBe1 cells [1]; 2.5 mM EGTA 5 hours, then test agents) | toxicity in TEER assays (C2BBe1 cells [3]; 5 mM) | effect on transepithelial electrical resistance (TEER) (C2BBe1 cells [3]; C2BBe1 monolayers, day 5) |
| --- | --- | --- | --- | --- | --- | --- | --- | --- | --- | --- | --- | --- | --- | --- | --- | --- |
| 1 µM | 0.6 µM | 1.1 µM | CC(C)[C@H](C(=O)Nc1ncc(F)s1)c1ccc(Cl)cc1 [#44] | only the highest concentration of the agonist #44 resulted in inhibition of cytokine production | 2.45 µM | – | – | – | – | – | – | – | – | – | – | – |
| 0.6 µM | 0.3 µM | 1.8 µM | CC(C)(C)[C@H](C(=O)Nc1ncc(-c2ccccc2)s1)c1ccc(Cl)cc1 [#58] | slight increase in some cytokines | 8.88 µM | did not result in increased resistance | – | – | – | – | – | – | – | – | – | – |
| – | – | 1060 µM | CCCC(=O)O [Butyrate, butyrate] | – | 60 µM | quicker increase, as well as higher measurements of resistance | 440 µM | 2440 µM | 130 µM | not altered | > 5000 µM | 50 µM | 170 µM | earlier and higher levels of resistance | appeared to be toxic | most potent of the three SCFA |
